Experimental data from ChEMBL document CHEMBL5725356, “Anti-fibrotic pyridinones” (2017).

Assay: ET-1 Assay: Fibroblasts (primary human lung and dermal, HFL-1, 3T3 etc) are seeded in 96-well plates at ~15000 cells/well and serum starved for 0-48 hours. After media exchange, compounds serially diluted in DMSO are added to the cells. After a brief incubation of ~30 min, stimulants (TGFb, serum, LPA etc) are added followed by further incubation for 16-48 hours. Media is then harvested and stored frozen in plate format for later endothelin-1 (ET-1) determination by ELISA. Toxicity measurements are made using the ATPlite kit (Perkin-Elmer). ET-1 is quantified using an ELISA kit (R&D Systems). The amount of ET-1 produced in the assay wells are back-calculated using the ELISA standard. The ability of a compound to inhibit ET-1 production is typically analyzed by fitting dose-response curves to a 4-parameter logistic function to obtain an EC50 value.
Settings: HFL1

Row | SMILES | EC50
1 | Cn1cc(-c2cn(-c3ccc(OC(F)(F)F)cc3)c(=O)cc2OCCN2CCCC2)cn1 | in the range around 125 µM
2 | Cc1cc(=O)n(-c2ccc(OC(F)(F)F)cc2)cc1-c1cccc(F)c1 | < 50 µM
3 | Cn1cc(-c2cn(-c3ccc(OC(F)(F)F)cc3)c(=O)cc2NCc2ccccc2)cn1 | < 50 µM
4 | Cn1ccc2c(-c3cn[nH]c3)cn(-c3ccc(C#N)cc3)c(=O)c21 | < 50 µM
5 | CCOc1ccc(CNc2cc(=O)n(-c3ccc(OC(F)(F)F)cc3)cc2-c2cnn(C)c2)cc1 | < 50 µM
6 | CCOc1ccc(-n2cc(-c3cnn(C)c3)c(NCc3ccccc3)cc2=O)c(C)c1 | < 50 µM
7 | Cn1cc(-c2cn(-c3ccc(OC(F)(F)F)cc3)c(=O)c3c2ccn3CCO)cn1 | < 50 µM
8 | O=c1c2[nH]ccc2c(-c2ccc(F)cc2)cn1-c1ccc(OC(F)(F)F)cc1 | < 50 µM
9 | CCn1c(=O)oc2ccc(-c3cn(-c4ccc(OC(F)(F)F)cc4)c(=O)cc3C)cc21 | > 200 µM
10 | Cn1cc(-c2c[nH]c(=O)cc2NCc2ccccn2)cn1 | in the range around 125 µM
11 | Cn1cnc2c(-c3ccc(F)cc3)cn(-c3ccc(OC(F)(F)F)cc3)c(=O)c21 | < 50 µM
12 | Cc1cc(=O)n(-c2cccc(N)c2)cc1-c1ccc(F)cc1 | in the range around 125 µM
13 | CC(C)c1cc(=O)n(-c2ccc(OC(F)(F)F)cc2)cc1-c1cnn(C)c1 | in the range around 125 µM
14 | CC(=O)c1ccc(=O)n(-c2ccc(OC(C)C)cc2)c1 | > 200 µM
15 | Cc1cc(=O)n(-c2cccc3c2OCCO3)cc1-c1cnn(C)c1 | in the range around 125 µM
16 | CCOc1ccc(-n2cc(-c3cn[nH]c3)c3c(c2=O)CCCC3)c(C)c1 | < 50 µM
17 | Cc1cc(=O)n(-c2ccccc2)cc1-c1ccc(F)cc1 | in the range around 125 µM
18 | Cn1cc(-c2cn(-c3ccc(OC(F)(F)F)cc3)c(=O)c3c2ncn3C)cn1 | < 50 µM
19 | Cc1n[nH]c(C)c1-c1ccc(=O)n(-c2cccc(F)c2)c1 | > 200 µM
20 | Cn1cc(-c2cn(-c3ccc(OC(F)(F)F)cc3)c(=O)cc2NCc2ccc(Cl)cc2Cl)cn1 | < 50 µM
21 | COCCOc1ccc(-n2cc(-c3ccc(F)cc3)c(C)cc2=O)cc1 | in the range around 125 µM
22 | COc1cccc(-n2cc(C(C)=O)ccc2=O)c1 | > 200 µM
23 | O=c1c2nccnc2c(-c2cnn(CCO)c2)cn1-c1ccc(OC(F)(F)F)cc1 | in the range around 125 µM
24 | Cc1nc2ccn(-c3ccc(OC(F)(F)F)cc3)c(=O)c2s1 | > 200 µM
25 | Cc1cc(=O)n(-c2ccc(OC(F)(F)F)cc2)cc1-c1cnsc1 | > 200 µM

Row | SMILES | EC50
26 | CCOc1ccc(-n2cc(-c3ccnnc3)c3nn(CC)nc3c2=O)c(C)c1 | < 50 µM
27 | Cc1cc(=O)n(-c2ccc(OC(F)(F)F)cc2)cc1-c1cccc2[nH]c(=O)oc12 | > 200 µM
28 | COc1cc(=O)n(-c2ccc(OC(F)(F)F)cc2)cc1-c1ccc(F)cc1 | > 200 µM
29 | Cn1cc(-c2cn(-c3ccc(OC(F)(F)F)cc3)c(=O)c3ncn(Cc4ccccc4)c23)cn1 | > 200 µM
30 | CS(=O)(=O)n1cc(-c2ccc(=O)n(-c3ccccc3)c2)cn1 | > 200 µM
31 | O=c1ccc(C(F)(F)F)cn1-c1cncnc1 | > 200 µM
32 | O=c1ccc(-c2ccc(F)cc2)nn1-c1ccc(OC(F)(F)F)cc1 | > 200 µM
33 | O=C1Cc2ccccc2N1c1ccc(OC(F)(F)F)cc1 | in the range around 125 µM
34 | Cc1cc(=O)n(-c2ccc(C(F)(F)F)cc2)cc1-c1ccc(F)cc1 | > 200 µM
35 | Cc1cc(=O)n(-c2ccc(Cl)cc2C)cc1-c1cnn(C)c1 | in the range around 125 µM
36 | COCCn1ccc2c(-c3cnn(C)c3)cn(-c3ccc(OC(F)(F)F)cc3)c(=O)c21 | < 50 µM
37 | Cc1cc(=O)n(-c2ccc(OC(F)(F)F)cc2)cc1-c1ccc2cn(C)nc2c1 | in the range around 125 µM
38 | CCn1ccc2c(-c3cn[nH]c3)cn(-c3ccc(OC(F)(F)F)cc3)c(=O)c21 | < 50 µM
39 | O=c1ccc(-c2cncnc2)cn1-c1ccccc1F | > 200 µM
40 | CC(=O)N1CCc2c(-c3cnn(C)c3)cn(-c3ccc(OC(F)(F)F)cc3)c(=O)c21 | in the range around 125 µM
41 | Cc1cc(=O)n(-c2cccc(C(F)(F)F)c2)cc1-c1ccccc1 | < 50 µM
42 | CCCC(=O)Nc1cc(=O)n(-c2ccc(OC(F)(F)F)cc2)cc1-c1ccc(F)cc1 | > 200 µM
43 | CCn1nnc2c(=O)n(-c3ccc(OC(F)(F)F)cc3)cc(-c3ccc(F)cc3)c21 | < 50 µM
44 | Cc1cc(=O)n(-c2ccc(OC(F)(F)F)cc2)cc1-c1ccc2[nH]c(=O)oc2c1 | > 200 µM
45 | Cc1cc(=O)n(-c2ccc(OC(F)(F)F)cc2)cc1-c1nnn(C)n1 | > 200 µM
46 | CCCCOC(=O)n1cc(-c2ccc(=O)n(-c3ccccc3)c2)cn1 | in the range around 125 µM
47 | O=c1cc2ccccc2cn1-c1ccccc1 | in the range around 125 µM
48 | Cc1cc(=O)n(-c2ccc(OC(F)(F)F)cc2C)cc1-c1cnn(C)c1 | > 200 µM
49 | O=C(NCc1ccccc1)Nc1cc(=O)n(-c2ccc(OC(F)(F)F)cc2)cc1-c1ccc(F)cc1 | > 200 µM
50 | Cc1cc(=O)n(-c2ccc(OC(F)(F)F)cc2)cc1-c1cccc2c1NC(=O)CO2 | > 200 µM

Row | SMILES | EC50
51 | COC(=O)Nc1cc(=O)n(-c2ccc(OC(F)(F)F)cc2)cc1-c1cnn(C)c1 | > 200 µM
52 | O=c1c2[nH]ccc2c(-c2cn[nH]c2)cn1-c1ccc(Cl)cc1 | < 50 µM
53 | Cc1nc2c(=O)n(-c3ccc(OC(F)(F)F)cc3)cc(-c3cn[nH]c3)c2n1C | < 50 µM
54 | CCOc1ccc(-n2cc(-c3cnn(C)c3)c(NCc3ccccn3)cc2=O)c(C)c1 | in the range around 125 µM
55 | COc1ccc(-c2ccc(=O)n(-c3ccc(Cl)cc3)c2)cc1 | in the range around 125 µM
56 | CCOC(=O)Nc1cc(=O)n(-c2ccc(OC(F)(F)F)cc2)cc1-c1cnn(C)c1 | > 200 µM
57 | Cc1n[nH]c(C)c1-c1ccc(=O)n(-c2ccc(OC(C)C)cc2)c1 | in the range around 125 µM
58 | Cn1cc(-c2cn(-c3ccc(OC(F)(F)F)cc3)c(=O)cc2Oc2ccccc2Cl)cn1 | < 50 µM
59 | CCOc1ccc(-n2cc(-c3cn[nH]c3)c3ccn(C)c3c2=O)c(C)c1 | < 50 µM
60 | Cc1cc(=O)n(-c2ccc(OC(F)(F)F)cc2)cc1-c1ccc(-c2cncs2)cc1 | in the range around 125 µM
61 | CC(C)n1ccc2c(-c3cn[nH]c3)cn(-c3ccc(OC(F)(F)F)cc3)c(=O)c21 | < 50 µM
62 | Cn1cc(-c2cn(-c3ccc(F)cc3)c(=O)cc2Oc2ccccc2)cn1 | < 50 µM
63 | Cn1cc(-c2cn(-c3ccc(OC(F)(F)F)cc3)c(=O)cc2Oc2ccccc2F)cn1 | > 200 µM
64 | Cc1cc(=O)n(-c2ccc(OC(F)(F)F)cc2)cc1-c1ccc(F)c(F)c1 | in the range around 125 µM
65 | Cn1ccc2c(-c3cn[nH]c3)cn(-c3ccc(Cl)cc3)c(=O)c21 | < 50 µM
66 | Cn1cc(-c2cn(-c3ccc(OC(F)(F)F)cc3)c(=O)c3scnc23)cn1 | < 50 µM
67 | Cn1cc(-c2cn(-c3ccc(OC(F)(F)F)cc3)c(=O)c3c2NCCC3)cn1 | > 200 µM
68 | Cc1cc(-c2cnn(C)c2)cn(-c2ccccc2)c1=O | in the range around 125 µM
69 | O=c1c2nccnc2c(-c2ccc(F)cc2)cn1-c1ccc(OC(F)(F)F)cc1 | < 50 µM
70 | COc1cccc(-n2cc(Br)ccc2=O)c1 | > 200 µM
71 | O=C1NC=CCN1c1ccccc1 | > 200 µM
72 | COc1cc(-n2cc(-c3cn[nH]c3)c(C)cc2=O)cc(OC)c1OC | > 200 µM
73 | Cn1cc(-c2cn(-c3ccc(OC(F)(F)F)cc3)c(=O)cc2OCCN2CCS(=O)(=O)CC2)cn1 | > 200 µM
74 | CCC(=O)Nc1cc(=O)n(-c2ccc(OC(F)(F)F)cc2)cc1-c1ccc(F)cc1 | > 200 µM
75 | Cn1cc(-c2ccc(=O)n(-c3ccccc3)n2)cn1 | > 200 µM

Row | SMILES | EC50
76 | O=c1cc(NCc2ccccn2)ccn1-c1ccc(OC(F)(F)F)cc1 | < 50 µM
77 | Cc1cc(=O)n(-c2ccc(OC(F)(F)F)cc2)cc1-c1nnnn1C | > 200 µM
78 | Cn1cc(-c2cn(-c3ccc(OC(F)(F)F)cc3)c(=O)c3c2CCN3C(=O)OC(C)(C)C)cn1 | < 50 µM
79 | CCn1ccc2c(=O)n(-c3ccc(OC(F)(F)F)cc3)cc(-c3cnn(C)c3)c21 | < 50 µM
80 | Cn1cc(-c2cn(-c3ccc(OC(F)(F)F)cc3)c(=O)c3c2ccn3C)cn1 | < 50 µM
81 | Cc1nc2c(-c3cnn(Cc4ccccc4)c3)cn(-c3ccc(OC(F)(F)F)cc3)c(=O)c2s1 | < 50 µM
82 | Cn1cc(-c2cn(-c3ccc(OC(F)(F)F)cc3)c(=O)c3ncn(C)c23)cn1 [AKEX-0011] | < 50 µM
83 | CC(=O)Nc1cccc(-n2cc(-c3cn[nH]c3)c(C)cc2=O)c1 | > 200 µM
84 | Cn1cc(-c2cn(-c3ccc(OC(F)(F)F)cc3)c(=O)cc2Cl)cn1 | > 200 µM
85 | O=c1ccc(-c2ccc(F)cc2)cn1-c1ccccc1F | in the range around 125 µM
86 | O=c1cc(OCCN2CCCC2)c(-c2ccc(F)cc2)cn1-c1ccc(OC(F)(F)F)cc1 | < 50 µM
87 | CCOc1ccc(-n2cc(-c3cnn(C)c3)c(OC3CCOCC3)cc2=O)c(C)c1 | in the range around 125 µM
88 | Cn1cc(-c2cn(-c3ccc(OC(F)(F)F)cc3)c(=O)cc2NC(=O)OCc2ccccc2)cn1 | in the range around 125 µM
89 | Cn1cc(-c2cn(-c3ccc(OC(F)(F)F)cc3)c(=O)c3[nH]ncc23)cn1 | > 200 µM
90 | CCOCCn1ccc2c(-c3cn[nH]c3)cn(-c3ccc(OC(F)(F)F)cc3)c(=O)c21 | < 50 µM
91 | Cn1cc(-c2cn(-c3ccc(OC(F)(F)F)cc3)c(=O)cc2OC2CCS(=O)(=O)CC2)cn1 | in the range around 125 µM
92 | Cc1cc(=O)n(-c2ccc(C(F)(F)F)cc2)cc1-c1ccccc1 | < 50 µM
93 | Cc1n[nH]c(C)c1-c1ccc(=O)n(-c2ccncc2)c1 | > 200 µM
94 | Cn1cc(-c2cn(-c3ccc(OC(F)(F)F)cc3)c(=O)c3c2OCC(=O)N3Cc2ccccc2)cn1 | > 200 µM
95 | Cn1cc(-c2cn(-c3ccc(Cl)cc3)c(=O)c3nccnc23)cn1 | > 200 µM
96 | O=c1cc(O)c(-c2ccc(F)cc2)cn1-c1ccc(OC(F)(F)F)cc1 | in the range around 125 µM
97 | Cn1cc(-c2cn(-c3ccc(OC(F)(F)F)cc3)c(=O)cc2Oc2cccc(F)c2)cn1 | < 50 µM
